In ChEMBL document CHEMBL4420066, “Aryl amine substituted quinoxaline used as anticancer drugs” (2017):
Calls of active or inactive are those of the source. The calls are words filed in the database; no cut-off is given here.

Columns and labels:
[1] = organism: Homo sapiens; assay: Inhibition of CIP2A protein expression in human PLC5 cells by Western blotting analysis; assay type: functional, cell-based
[2] = tested on: Mus musculus; assay: Suppression of CIP2A expression in tumor of human PLC5 cells xenografted in mouse at 10 mg/kg dosed for 4 weeks by Western blot analysis; assay type: functional, organism-based
[3] = organism: Homo sapiens; assay: Induction of apoptosis in human PLC5 cells at 2 uM in presence of caspase inhibitor Z-VAD-fmk incubated for 48 hrs by annexin-V-FITC staining based by flow cytometry; assay type: functional, cell-based
[4] = tested on: HA22T cell line; assay: Induction of necrosis in human HA22T cells >= 2 uM incubated for 48 hrs by annexin-V-FITC staining based by flow cytometry relative to control; assay type: functional
[5] = tested on: SK-HEP1; assay: Inhibition of CIP2A protein expression in human SKHEP1 cells assessed as CIP2A protein expression ratio level at 1uM by Western blotting analysis (Rvb =1); assay type: functional
[6] = tested on: Hep 3B2; assay: Induction of apoptosis in human Hep3B cells assessed as caspase-3 activation at 0.5 to 4 uM incubated for 48 hrs by Western blotting analysis; assay type: functional, cell-based
[7] = tested on: Hep 3B2; assay: Induction of apoptosis in human Hep3B cells assessed as induction of PARP cleavage at 0.5 to 4 uM incubated for 48 hrs by Western blotting analysis; assay type: functional, cell-based
[8] = tested on: Hep 3B2; assay: Inhibition of CIP2A protein expression in human Hep3B cells assessed as CIP2A protein expression ratio level at 2 uM by Western blotting analysis (Rvb =1); assay type: functional
[9] = tested on: SK-HEP1; assay: Induction of apoptosis in human SKHEP1 cells >= 2 uM incubated for 48 hrs by annexin-V-FITC staining based by flow cytometry relative to control; assay type: functional
[10] = tested on: Mus musculus; assay: Activation of PP2A activity in tumor of human PLC5 cells xenografted in mouse at 10 mg/kg dosed for 4 weeks; assay type: functional, organism-based
[11] = Inhibition of CIP2A protein expression in human PLC5 cells assessed as CIP2A protein expression ratio level at 0.5 uM by Western blotting analysis (Rvb =1); assay type: functional
[12] = organism: Homo sapiens; assay: Inhibition of human CIP2A gene promoter in human PLC5 cells assessed as inhibition of ELK1 protein expression by Western blotting analysis; assay type: cell-based
[13] = tested on: HA22T cell line; assay: Induction of apoptosis in human HA22T cells assessed as accumulation at subG1 phase at 0.5 to 4 uM by flow cytometry; assay type: functional, cell-based
[14] = tested on: Hep 3B2; assay: Induction of apoptosis in human Hep3B cells assessed as caspase-9 activation at 0.5 to 4 uM incubated for 48 hrs by Western blotting analysis; assay type: functional, cell-based
[15] = tested on: SK-HEP1; assay: Induction of necrosis in human SKHEP1 cells >= 2 uM incubated for 48 hrs by annexin-V-FITC staining based by flow cytometry relative to control; assay type: functional
[16] = tested on: HA22T cell line; assay: Inhibition of CIP2A protein expression in human HA22T cells assessed as CIP2A protein expression ratio level at 1 uM by Western blotting analysis (Rvb =1); assay type: functional
[17] = tested on: Hep 3B2; assay: Inhibition of PP2A-A protein expression in human Hep3B cells at 1 uM incubated for 24 hrs by Western blotting analysis; assay type: functional, cell-based
[18] = target: T1, Serine/threonine-protein kinase AKT (Homo sapiens) (UniProt P31751+Q9Y243+P31749); assay: Inhibition of Akt phosphorylation at S473 residue in human HA22T cells by Western blotting analysis; assay type: cell-based
T1 sequence (P31749 whole entry, looked up): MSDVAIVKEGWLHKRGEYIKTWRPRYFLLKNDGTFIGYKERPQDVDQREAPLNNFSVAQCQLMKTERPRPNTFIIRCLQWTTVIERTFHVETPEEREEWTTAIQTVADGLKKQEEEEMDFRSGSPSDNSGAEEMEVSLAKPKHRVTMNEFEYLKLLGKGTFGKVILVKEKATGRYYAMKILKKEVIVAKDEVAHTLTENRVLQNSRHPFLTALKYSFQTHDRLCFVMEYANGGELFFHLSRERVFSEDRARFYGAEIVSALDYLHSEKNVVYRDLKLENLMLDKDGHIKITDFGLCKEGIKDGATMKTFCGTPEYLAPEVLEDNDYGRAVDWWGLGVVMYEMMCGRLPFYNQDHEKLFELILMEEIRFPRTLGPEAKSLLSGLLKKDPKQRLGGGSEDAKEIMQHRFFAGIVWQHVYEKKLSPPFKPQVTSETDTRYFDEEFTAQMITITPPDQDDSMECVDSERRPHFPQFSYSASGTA
T1 sequence (P31751 whole entry, looked up): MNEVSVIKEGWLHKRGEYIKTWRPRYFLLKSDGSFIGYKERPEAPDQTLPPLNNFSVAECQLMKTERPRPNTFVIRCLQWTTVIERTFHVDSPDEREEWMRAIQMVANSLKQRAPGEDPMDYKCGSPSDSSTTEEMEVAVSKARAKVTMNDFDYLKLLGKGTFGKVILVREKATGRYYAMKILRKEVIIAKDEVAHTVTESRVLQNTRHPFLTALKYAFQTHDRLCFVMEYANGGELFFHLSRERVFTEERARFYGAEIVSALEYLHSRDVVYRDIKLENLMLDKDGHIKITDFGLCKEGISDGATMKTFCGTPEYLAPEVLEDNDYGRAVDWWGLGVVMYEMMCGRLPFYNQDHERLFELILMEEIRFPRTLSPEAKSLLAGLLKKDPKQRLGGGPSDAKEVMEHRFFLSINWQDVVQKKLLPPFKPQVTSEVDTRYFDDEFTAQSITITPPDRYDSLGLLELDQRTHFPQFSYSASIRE
T1 sequence (Q9Y243 whole entry, looked up): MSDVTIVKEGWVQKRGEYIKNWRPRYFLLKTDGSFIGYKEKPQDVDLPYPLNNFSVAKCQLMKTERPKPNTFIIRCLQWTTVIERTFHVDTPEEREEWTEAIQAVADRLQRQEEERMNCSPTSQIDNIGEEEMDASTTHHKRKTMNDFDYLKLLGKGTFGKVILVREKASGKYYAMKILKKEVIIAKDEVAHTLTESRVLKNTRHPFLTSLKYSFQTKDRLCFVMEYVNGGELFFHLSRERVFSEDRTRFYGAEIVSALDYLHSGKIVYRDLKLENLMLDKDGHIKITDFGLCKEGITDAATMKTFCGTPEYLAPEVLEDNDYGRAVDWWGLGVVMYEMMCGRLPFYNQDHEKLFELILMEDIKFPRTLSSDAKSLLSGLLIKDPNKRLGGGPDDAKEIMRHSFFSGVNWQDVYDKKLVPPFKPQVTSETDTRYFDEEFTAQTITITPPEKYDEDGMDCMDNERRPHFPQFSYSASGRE

[19] = organism: Homo sapiens; assay: Induction of apoptosis in human PLC5 cells with ectopic over expression of myc-tagged CIP2A at 2 uM incubated for 24 hrs by annexin-V-FITC staining based by flow cytometry; assay type: functional, cell-based
[20] = tested on: Mus musculus; assay: Suppression of Akt phosphorylation at S473 residue in tumor of human PLC5 cells xenografted in mouse at 10 mg/kg dosed for 4 weeks by Western blot analysis; assay type: functional, organism-based
[21] = tested on: Hep 3B2; assay: Induction of apoptosis in human Hep3B cells assessed as induction of PARP cleavage at 2 uM in presence of caspase inhibitor Z-VAD-fmk incubated for 48 hrs by Western blotting analysis; assay type: functional, cell-based
[22] = organism: Homo sapiens; assay: Induction of apoptosis in human PLC5 cells assessed as caspase-9 activation at 0.5 to 4 uM incubated for 48 hrs by Western blotting analysis; assay type: functional, cell-based
[23] = tested on: SK-HEP1; assay: Induction of apoptosis in human SKHEP1 cells assessed as induction of DNA fragmentation at 1 uM incubated for 24 hrs by ELISA; assay type: functional, cell-based
[24] = organism: Homo sapiens; assay: Inhibition of human CIP2A gene promoter in human PLC5 cells with ectopic overexpression of GFP-tagged Elk-1 assessed as inhibition of ELK1 protein expression at 2 uM by Western blotting analysis; assay type: cell-based
[25] = organism: Homo sapiens; assay: Activation of PP2A in human SKHEP1 cells assessed as minimal concentration causing increase in protein phosphatase activity incubated for 24 hrs using phosphopeptide substrate incubated for 10 mins by malachite green-phosphate complex assay; assay type: cell-based
[26] = organism: Homo sapiens; assay: Inhibition of PP2A-C protein expression in human PLC5 cells at 1 uM incubated for 24 hrs by Western blotting analysis; assay type: functional, cell-based
[27] = tested on: Hep 3B2; assay: Induction of apoptosis in human Hep3B cells assessed as induction of DNA fragmentation at 1 uM incubated for 24 hrs by ELISA; assay type: functional, cell-based
[28] = tested on: Hep 3B2; assay: Induction of necrosis in human Hep3B cells >= 2 uM incubated for 48 hrs by annexin-V-FITC staining based by flow cytometry relative to control; assay type: functional
[29] = target: T1, Serine/threonine-protein kinase AKT (Homo sapiens); assay: Inhibition of Akt phosphorylation at S473 residue in human PLC5 cells at 2 uM incubated for 24 hrs in presence of PP2A-C siRNA by Western blotting analysis; assay type: cell-based
[30] = tested on: SK-HEP1; assay: Inhibition of CIP2A protein expression in human SKHEP1 cells assessed as CIP2A protein expression ratio level at 2 uM by Western blotting analysis (Rvb =1); assay type: functional
[31] = tested on: Hep 3B2; assay: Induction of apoptosis in human Hep3B cells at 2 uM in presence of caspase inhibitor Z-VAD-fmk incubated for 48 hrs by annexin-V-FITC staining based by flow cytometry; assay type: functional, cell-based
[32] = organism: Homo sapiens; assay: Inhibition of human CIP2A gene promoter in human PLC5 cells assessed as inhibition of ELK1 protein expression at 2 uM by Western blotting analysis; assay type: cell-based
[33] = Induction of apoptosis in human PLC5 cells >= 2 uM incubated for 48 hrs by annexin-V-FITC staining based by flow cytometry relative to control; assay type: functional
[34] = organism: Homo sapiens; assay: Induction of apoptosis in human PLC5 cells assessed as induction of DNA fragmentation at 1 uM incubated for 24 hrs by ELISA; assay type: functional, cell-based
[35] = tested on: HA22T cell line; assay: Inhibition of CIP2A protein expression in human HA22T cells assessed as CIP2A protein expression ratio level at 2 uM by Western blotting analysis (Rvb =1); assay type: functional
[36] = organism: Homo sapiens; assay: Cytotoxicity against human PLC5 cells assessed as reduction in cell viability at 0.5 to 4 uM incubated for 48 hrs by MTT assay; assay type: functional, cell-based
[37] = Inhibition of CIP2A protein expression in human PLC5 cells assessed as CIP2A protein expression ratio level at 1 uM by Western blotting analysis (Rvb =1); assay type: functional
[38] = tested on: HA22T cell line; assay: Induction of apoptosis in human HA22T cells assessed as caspase-3 activation at 0.5 to 4 uM incubated for 48 hrs by Western blotting analysis; assay type: functional, cell-based
[39] = tested on: Hep 3B2; assay: Inhibition of CIP2A protein expression in human Hep3B cells assessed as CIP2A protein expression ratio level at 4 uM by Western blotting analysis (Rvb =1); assay type: functional

inhibition [18]: Dose-dependent effect
inhibition [29]: inactive
SMILES: C#Cc1cccc(Nc2nc3ccccc3nc2Nc2cccc(C#C)c2)c1
inhibition [1]: Dose-dependent effect
Activity [2]: Active
Activity [3]: inactive
Activity [4]: 50%
Ratio [5]: 0.32
Activity [6]: Dose-dependent effect
Activity [7]: Dose-dependent effect
Ratio [8]: 0.49
Activity [9]: 50%
Activity [10]: Active
Ratio [11]: 0.84
inhibition [12]: Dose-dependent effect
Activity [13]: Active
Activity [14]: Dose-dependent effect
Activity [15]: 50%
Ratio [16]: 0.84
inhibition [17]: inactive
Activity [19]: inactive
Activity [20]: Active
Activity [21]: inactive
Activity [22]: Dose-dependent effect
Activity [23]: Active
inhibition [24]: inactive
MEC [25]: 100 to 200 nM
inhibition [26]: inactive
Activity [27]: Active
Activity [28]: 50%
Ratio [30]: 0.21
Activity [31]: inactive
inhibition [32]: Active
Activity [33]: 50%
Activity [34]: Active
Ratio [35]: 0.36
Activity [36]: Active
Ratio [37]: 0.28
Activity [38]: Dose-dependent effect
Ratio [39]: 0.13
